The results in this text go back to patent publication EP1889831A2, “Diazenedicarboxamides as inhibitors of D-alanine: D-alanine ligase (Ddl)” (University of Ljubljana, priority 2006, dated 2008).

Values after ≈ are worked out from the molar mass of the structure shown. Some results are limits rather than exact numbers.

For one experiment, the system named is E.coli 1411. The experiment is described as follows: Determination of antimicrobial activity (MIC, broth microdilution). Type of experiment: cell-based. The conditions noted are these: IsoSensitest broth, inoculum 10^4 cells per mL, 16 h at 37 °C; unit assumed. The procedure: (§1) Minimal inhibitory concentrations (MICs) of compounds were determined by broth microdilution in IsoSensitest broth (Oxoid, Basingstoke, UK) using an inoculum of 10^4 cells per mL for E. coli or 10^6 cells per mL for S. aureus. The compounds under investigation were prepared in a 2-fold dilution series in 50% dimethyl sulfoxide (Sigma-Aldrich, Dorset, UK). Microwell plates with 96 wells (Nunc, Fisher Scientific, Loughborough, UK) containing the antimicrobial agent and bacterial suspension were incubated for 16 h at 37 °C in a Spectramax 384 plus microwell plate reader (Molecular Devices, Abingdon, UK), running SOFTmax PRO 3.1.1 software. Optical density readings (600 nm) were taken at 10 min intervals. Plates were shaken for 30 s before each reading. The MIC was taken as the lowest concentration of antimicrobial agent that prevented growth. The invention is further described in connection with the following non-limiting examples: […]
On the technique in general: Broth dilution looks for growth in wells or tubes with falling amounts of substance.

Another experiment relates to S.aureus 8325-4. The experiment is described as above. It is filed as cell-based. The conditions noted are these: IsoSensitest broth, inoculum 10^6 cells per mL, 16 h at 37 °C; unit assumed. The procedure: as §1
The test system of another experiment is E.coli SM 1411. Described as above. Type of experiment: cell-based. The conditions noted are these: IsoSensitest broth, inoculum 10^4 cells per mL, 16 h at 37 °C; unit assumed. The procedure:
as §1

The target in a further experiment is DdlB (Escherichia coli, UniProt P07862). Briefly: Determination of inhibitory activity on DdlB (colorimetric malachite green method). It is filed as biochemical, E. coli. The conditions noted are these: 37 °C, 700 µM D-Ala, 500 µM ATP, 30 min incubation, seven inhibitor concentrations. The method, then: The D-Ala-adding activity of DdlB ligase was monitored by the detection of orthophosphate generated during the reaction based on the colorimetric malachite green method (Walsh, A. et al. J Bacteriol. 1999, 181: 5395). […] All compounds were soluble in the assay mixture containing 5% DMSO. After 30 min of incubation, 100 µL Biomol® reagent was added. After 5 min, absorbance was read at 650 nm. Residual activity was calculated with respect to a similar assay without inhibitor. IC50 constants were determined by measuring residual activity at seven different inhibitor concentrations and represent the concentration of inhibitors where RA is 50%.

In turn, `O=C(N=NC(=O)NCc1ccccn1)NCCCl` yielded an MIC E.coli 1411 with E.coli 1411 above 256 µg/mL. For the same compound, in the experiment on S.aureus 8325-4, the MIC S.aureus 8325-4 was above 256 µg/mL. In the experiment with E.coli SM 1411, this compound came in with an MIC E.coli SM 1411 above 256 µg/mL. The IC50 at DdlB came to 119 µM.
`O=C(N=NC(=O)NCc1ccccn1)NCc1ccccn1`: the MIC E.coli 1411 against E.coli 1411 is above 256 µg/mL. Moreover, the MIC S.aureus 8325-4 in the experiment with S.aureus 8325-4 is above 256 µg/mL. Besides, the MIC E.coli SM 1411 in the experiment with E.coli SM 1411 is above 256 µg/mL. In addition, the IC50 against DdlB stood at 158 µM.
Take `CC(C)c1ccc(NC(=O)N=NC(=O)NCCCl)cc1`: the MIC E.coli 1411 against E.coli 1411 was above 256 µg/mL. In the experiment with S.aureus 8325-4, this compound came in with an MIC S.aureus 8325-4 above 256 µg/mL. In the experiment with E.coli SM 1411, this compound had an MIC E.coli SM 1411 above 256 µg/mL. For the same compound, on DdlB, half-maximal inhibition (IC50) was put at 49 µM.
With `CCC(C)c1ccc(NC(=O)N=NC(=O)NCCCl)cc1` (stereo not shown), the MIC E.coli 1411 against E.coli 1411 is above 256 µg/mL. In the experiment with S.aureus 8325-4, the MIC S.aureus 8325-4 was above 256 µg/mL. The compound also registered an MIC E.coli SM 1411 in the experiment with E.coli SM 1411 above 256 µg/mL. Also, on DdlB, the IC50 stood at 25 µM.
`O=C(N=NC(=O)NCc1cccnc1)NCc1cccnc1` showed an MIC E.coli 1411 in the experiment with E.coli 1411 above 256 µg/mL. In the experiment on S.aureus 8325-4, this compound returned an MIC S.aureus 8325-4 above 256 µg/mL. In the experiment with E.coli SM 1411, this compound had an MIC E.coli SM 1411 above 256 µg/mL. Moreover, the IC50 against DdlB came to 123 µM.
Turning to `O=C(N=NC(=O)NCC(Cl)(Cl)Cl)NCC(Cl)(Cl)Cl`, in the experiment with E.coli 1411, the MIC E.coli 1411 was above 256 µg/mL. Moreover, the MIC S.aureus 8325-4 in the experiment with S.aureus 8325-4 is above 256 µg/mL. In the experiment with E.coli SM 1411, this compound had an MIC E.coli SM 1411 above 256 µg/mL. Moreover, the half-maximal inhibitory concentration (IC50) against DdlB turned out to be 187 µM.
As to `O=C(/N=N/C(=O)NCCCl)NCCCl`, the MIC E.coli 1411 against E.coli 1411 was above 256 µg/mL. The compound further came in with an MIC S.aureus 8325-4 with S.aureus 8325-4 above 256 µg/mL. In addition, the MIC E.coli SM 1411 with E.coli SM 1411 was above 256 µg/mL. Also, the IC50 on DdlB was 133 µM.
The compound `CC(C)(C)c1ccc(NC(=O)N=NC(=O)NCCCl)cc1` gave an MIC E.coli 1411 against E.coli 1411 above 256 µg/mL. The MIC S.aureus 8325-4 against S.aureus 8325-4 is above 256 µg/mL. The compound further yielded an MIC E.coli SM 1411 against E.coli SM 1411 above 256 µg/mL. Moreover, it took 37 µM to reach half-maximal inhibition against DdlB (IC50).
As for `O=C(N=NC(=O)Nc1ccccc1)NCc1ccccn1`, the MIC E.coli 1411 in the experiment on E.coli 1411 was 64 µg/mL (≈ 226 µM). Besides, the MIC S.aureus 8325-4 in the experiment on S.aureus 8325-4 amounted to 64 µg/mL (≈ 226 µM). The compound further showed an MIC E.coli SM 1411 against E.coli SM 1411 of 64 µg/mL (≈ 226 µM). On DdlB, it took 111 µM to reach half-maximal inhibition (IC50).
The compound `O=C(N=NC(=O)Nc1cccc(Cl)c1)NCc1cccnc1` returned an MIC E.coli 1411 with E.coli 1411 of 64 µg/mL (≈ 201 µM). Further, the MIC S.aureus 8325-4 in the experiment on S.aureus 8325-4 came out at 256 µg/mL (≈ 806 µM). Besides, the MIC E.coli SM 1411 in the experiment with E.coli SM 1411 came to 64 µg/mL (≈ 201 µM). The same compound came in with an IC50 against DdlB of 15 µM.
As to `CC(NC(=O)N=NC(=O)Nc1ccccc1)c1ccccc1` (stereo not shown), the MIC E.coli 1411 in the experiment with E.coli 1411 was above 256 µg/mL. Further, in the experiment on S.aureus 8325-4, the MIC S.aureus 8325-4 is above 256 µg/mL. Besides, in the experiment on E.coli SM 1411, the MIC E.coli SM 1411 is above 256 µg/mL. Also, 41 µM corresponded to half-maximal inhibition at DdlB (IC50).
Take `O=C(N=NC(=O)Nc1ccccc1)NCc1cccnc1` [drawing 18]: the MIC E.coli 1411 in the experiment with E.coli 1411 is above 256 µg/mL. The MIC S.aureus 8325-4 in the experiment with S.aureus 8325-4 was above 256 µg/mL. The MIC E.coli SM 1411 in the experiment with E.coli SM 1411 is above 256 µg/mL. This compound showed an IC50 against DdlB of 76 µM.
Compound `O=C(N=NC(=O)Nc1ccccc1)NCc1cccnc1` [drawing 22] had an MIC E.coli 1411 in the experiment on E.coli 1411 of 64 µg/mL (≈ 226 µM). Also, the MIC S.aureus 8325-4 with S.aureus 8325-4 is 128 µg/mL (≈ 452 µM). In the experiment with E.coli SM 1411, this compound displayed an MIC E.coli SM 1411 of 64 µg/mL (≈ 226 µM). Further, inhibition against DdlB was half-maximal at 36 µM (IC50).

As usually defined, the IC50 is the point on the concentration scale where inhibition reaches its midpoint. The low end stands for higher potency, the high end for lower potency.
